Source: publication PMC8119899, “A Single Mutation in the Outer Lipid-Facing Helix of a Pentameric Ligand-Gated Ion Channel Affects Channel Function Through a Radially-Propagating Mechanism” (Frontiers in Molecular Biosciences, 2021)
Where a chain is given by its changes, count along the chain named.

Columns and labels:
5-HT3A receptor M235A = molecular target: T1, 5-HT3A receptor M235A (Mus musculus, UniProt P23979, M262A); assay: [3H]GR65630 saturation binding, M235A receptor, HEK293 cell membranes; details: mean and SEM, n ≥ 3
T1 construct: expressed in transfected cells; host or cells: HEK293
T1 sequence (P23979 24-489 M262A): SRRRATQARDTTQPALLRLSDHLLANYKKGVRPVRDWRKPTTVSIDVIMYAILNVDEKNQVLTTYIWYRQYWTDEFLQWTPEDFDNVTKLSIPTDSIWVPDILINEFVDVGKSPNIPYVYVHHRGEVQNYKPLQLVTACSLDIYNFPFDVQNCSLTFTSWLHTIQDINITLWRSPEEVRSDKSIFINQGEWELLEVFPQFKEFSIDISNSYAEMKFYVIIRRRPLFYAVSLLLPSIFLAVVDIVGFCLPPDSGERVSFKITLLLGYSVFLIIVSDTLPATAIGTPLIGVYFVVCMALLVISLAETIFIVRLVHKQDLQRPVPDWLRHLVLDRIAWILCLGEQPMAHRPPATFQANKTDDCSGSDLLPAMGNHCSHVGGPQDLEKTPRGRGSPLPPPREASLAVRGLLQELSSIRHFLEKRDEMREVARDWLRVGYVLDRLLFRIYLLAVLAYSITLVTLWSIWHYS
Protocol: (§1) The mouse 5-HT3A cDNA (Q6J1J7) in pcDNA3.1 (for HEK cell transfection) or pGEMHE (for RNA production) was modified by QuikChange site-directed mutagenesis (Agilent Technologies) to create point mutants (verified by sequencing).
(§2) Human embryonic kidney (HEK) 293 cells were maintained at 37 °C at 5% CO2 in a humidified atmosphere, in Dulbecco's Modified Eagle's Medium/Nutrient Mix F12 (1:1) (Invitrogen, Paisley, UK) with GlutaMAX^TM and 10% fetal bovine serum (GE Healthcare) (DMEM/FBS) and passaged when confluent. Five micrograms of WT or mutant 5-HT3A DNA and 30 μl polyethyleneamine (Polysciences) incubated for 10 min in 1 mL DMEM was added to 60% confluent HEK293 cells for transfection, and cells grown for 2 days before assays.
(§3) This was performed as previously described. Lummis and Thompson ([2013]) Briefly receptors in crude HEK293 cell membranes were labeled with the 5-HT3R antagonist [^3H]GR65630 by incubation in 0.5 mL 10 mM HEPES buffer pH 7.5 for 1 h on ice, using 1 μM quipazine to determine non-specific binding. Data were analyzed in GraphPad Prism by iterative curve fitting.

5-HT3A receptor Y441A = molecular target: T2, 5-HT3A receptor Y441A (Mus musculus, UniProt P23979, Y468A); set-up: expressed in transfected cells; method as in Mesoy et al., [2019]; details: HEK293 cells, ref Mesoy et al., [2019]; cited from earlier work
T2 sequence (P23979 24-489 Y468A): T1 sequence (P23979 24-489 M262A) with A239M, Y445A

WT 5-HT3A receptor = molecular target: T3, WT 5-HT3A receptor (Mus musculus, UniProt P23979); assay: [3H]GR65630 saturation binding, WT receptor, HEK293 cell membranes; details: mean and SEM, n ≥ 3
T3 construct: expressed in transfected cells; host or cells: HEK293
T3 sequence (P23979 24-483 isoform P23979-2 limits assumed): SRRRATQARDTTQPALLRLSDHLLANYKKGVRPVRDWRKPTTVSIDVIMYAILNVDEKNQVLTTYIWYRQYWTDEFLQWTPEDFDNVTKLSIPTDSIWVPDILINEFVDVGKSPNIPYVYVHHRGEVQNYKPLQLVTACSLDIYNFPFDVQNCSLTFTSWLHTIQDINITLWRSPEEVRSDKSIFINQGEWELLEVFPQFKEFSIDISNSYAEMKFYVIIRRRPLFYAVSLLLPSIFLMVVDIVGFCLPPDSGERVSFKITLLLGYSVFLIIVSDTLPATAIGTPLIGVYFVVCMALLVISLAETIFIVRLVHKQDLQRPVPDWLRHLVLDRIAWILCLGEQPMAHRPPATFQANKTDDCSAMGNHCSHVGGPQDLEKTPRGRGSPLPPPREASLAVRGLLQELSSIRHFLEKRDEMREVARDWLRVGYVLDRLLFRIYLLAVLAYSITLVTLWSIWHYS
Protocol: as §1, §2, §3

5-HT3A receptor D238A = molecular target: T4, 5-HT3A receptor D238A (Mus musculus, UniProt P23979, D265A); assay: [3H]GR65630 saturation binding, D238A receptor, HEK293 cell membranes; set-up: expressed in transfected cells; host or cells: HEK293; details: mean and SEM, n ≥ 3
T4 sequence (P23979 24-489 D265A): T1 sequence (P23979 24-489 M262A) with A239M, D242A
Protocol: as §1, §2, §3

5-HT3A receptor K255L = molecular target: T5, 5-HT3A receptor K255L (Mus musculus, UniProt P23979, K282L); assay: [3H]GR65630 saturation binding, K255L receptor, HEK293 cell membranes; details: mean and SEM, n ≥ 3
T5 construct: expressed in transfected cells
T5 sequence (P23979 24-489 K282L): T1 sequence (P23979 24-489 M262A) with A239M, K259L
Protocol: as §1, §2, §3

5-HT3A receptor C290A = molecular target: T6, 5-HT3A receptor C290A (Mus musculus, UniProt P23979, C317A); assay: [3H]GR65630 saturation binding, C290A receptor, HEK293 cell membranes; set-up: expressed in transfected cells; host or cells: HEK293; details: mean and SEM, n ≥ 3
T6 sequence (P23979 24-489 C317A): T1 sequence (P23979 24-489 M262A) with A239M, C294A
Protocol: as §1, §2, §3

Q: Which Bmax (5-HT3A receptor M235A) does the source give for Cc1[nH]cnc1CCC(=O)c1cn(C)c2ccccc12 [[^3H]GR65630] here?
A: 2.4 ± 0.4 pmol/mg protein

Q: What about the Kd (5-HT3A receptor M235A) of the same compound?
A: 700 ± 90 pM

Q: And the “level of [3H]GR65630 binding sites” value (5-HT3A receptor Y441A)?
A: high levels

Q: What about the Bmax (WT 5-HT3A receptor) of the same compound?
A: 1.2 ± 0.8 pmol/mg protein

Q: And the Kd (WT 5-HT3A receptor)?
A: 180 ± 30 pM

Q: And the Bmax (5-HT3A receptor D238A)?
A: 1.8 ± 0.4 pmol/mg protein

Q: And the Kd (5-HT3A receptor D238A)?
A: 500 ± 70 pM

Q: And the Bmax (5-HT3A receptor K255L)?
A: 0.4 ± 0.2 pmol/mg protein

Q: What about the Kd (5-HT3A receptor K255L) of the same compound?
A: 170 ± 20 pM

Q: What about the Bmax (5-HT3A receptor C290A) of the same compound?
A: 3.8 ± 0.3 pmol/mg protein

Q: What about the Kd (5-HT3A receptor C290A) of the same compound?
A: 850 ± 100 pM
